Patent US9149038B2, “4-amino-6-(heterocyclic)picolinates and 6-amino-2-(heterocyclic)pyrimidine-4-carboxylates and their use as herbicides” (Dow AgroSciences LLC, priority 2013, dated 2015)
Read-outs that look alike come from different tables or passages of the source.

Assays:
[1] = test system: Key Grass and Sedge Weeds as well as Grass Crops; assay: Post-Emergent Test II: postemergent herbicidal activity, visual rating after 14 d (Table 8); format: in vivo; conditions: post-emergence, 336 h; for pest or weed control at 35 g/ha: 35 g ai/ha; for pest or weed control at 70 g/ha: 70 g ai/ha; for pest or weed control at 140 g/ha: 140 g ai/ha
How it was run: (§1)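 Greenhouse plants at first or second true leaf stage sprayed with compound in acetone/DMSO-based spray solution with crop oil concentrate and Triton X-155 at 187 L/ha, tested at highest rate and ½× to 1/16× dilutions; solvent blank controls. Injury rated visually 0–100% versus untreated plants after 14 d.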

[2] = test system: Key Broadleaf Weed and Crop Species; assay: Post-Emergent Test II: postemergent herbicidal activity, visual rating after 14 d (Table 7); format: in vivo; conditions: post-emergence, 336 h; for pest or weed control at 35 g/ha: 35 g ai/ha; for pest or weed control at 70 g/ha: 70 g ai/ha; for pest or weed control at 140 g/ha: 140 g ai/ha
How it was run: as §1

[3] = barnyardgrass (Echinochloa crus-galli), read-out: Visual Growth Reduction (%) 14 Days After Application, ECHCG
[4] = giant foxtail (Setaria faberi), read-out: Visual Growth Reduction (%) 14 Days After Application, SETFA
[5] = maize, corn (Zea mays), read-out: Visual Growth Reduction (%) 14 Days After Application, ZEAMX
[6] = rice (Oryza sativa), read-out: Visual Growth Reduction (%) 14 Days After Application, ORYSA
[7] = wheat, spring (Triticum aestivum), read-out: Visual Growth Reduction (%) 14 Days After Application, TRZAS
[8] = yellow nutsedge (Cyperus esculentus), read-out: Visual Growth Reduction (%) 14 Days After Application, CYPES
[9] = ABUTH: velvetleaf (Abutilon theophrasti), read-out: Visual Growth Reduction (%) 14 Days After Application ABUTH
[10] = AMARE: redroot pigweed (Amaranthus retroflexus), read-out: Visual Growth Reduction (%) 14 Days After Application AMARE
[11] = BRSNN: oilseed rape, canola (Brassica napus), read-out: Visual Growth Reduction (%) 14 Days After Application BRSNN
[12] = CHEAL: lambsquarters (Chenopodium album), read-out: Visual Growth Reduction (%) 14 Days After Application CHEAL
[13] = EPHHL: wild poinsettia (Euphorbia heterophylla), read-out: Visual Growth Reduction (%) 14 Days After Application EPHHL
[14] = HELAN: sunflower (Helianthus annuus), read-out: Visual Growth Reduction (%) 14 Days After Application HELAN

Compound | pest or weed control at 35 g/ha [1, 3] [%] | pest or weed control at 70 g/ha [1, 3] [%] | pest or weed control at 140 g/ha [1, 3] [%] | pest or weed control at 35 g/ha [1, 4] [%] | pest or weed control at 70 g/ha [1, 4] [%] | pest or weed control at 140 g/ha [1, 4] [%] | pest or weed control at 35 g/ha [1, 5] [%] | pest or weed control at 70 g/ha [1, 5] [%] | pest or weed control at 140 g/ha [1, 5] [%] | pest or weed control at 35 g/ha [1, 6] [%] | pest or weed control at 70 g/ha [1, 6] [%] | pest or weed control at 140 g/ha [1, 6] [%] | pest or weed control at 35 g/ha [1, 7] [%] | pest or weed control at 70 g/ha [1, 7] [%] | pest or weed control at 140 g/ha [1, 7] [%] | pest or weed control at 35 g/ha [1, 8] [%] | pest or weed control at 70 g/ha [1, 8] [%] | pest or weed control at 140 g/ha [1, 8] [%] | pest or weed control at 35 g/ha [2, 9] [%] | pest or weed control at 70 g/ha [2, 9] [%] | further results
COC(=O)c1nc(-c2ccc(F)c3c2OC(F)(F)O3)cc(N)c1Cl [Compound 88] | 0 to 29 | 0 to 29 | 0 to 29 | 0 to 29 | 0 to 29 | 0 to 29 | 0 to 29 | 0 to 29 | 0 to 29 | 0 to 29 | 0 to 29 | 0 to 29 | 0 to 29 | 45 to 59 | 60 to 74 | 30 to 44 | 60 to 74 | 75 to 84 | 60 to 74 | 85 to 94 | pest or weed control at 140 g/ha [2, 9]: 85 to 94%; pest or weed control at 35 g/ha [2, 10]: 95 to 100%; pest or weed control at 70 g/ha [2, 10]: 95 to 100%; pest or weed control at 140 g/ha [2, 10]: 95 to 100%; pest or weed control at 35 g/ha [2, 11]: 60 to 74%; pest or weed control at 70 g/ha [2, 11]: 60 to 74%; pest or weed control at 140 g/ha [2, 11]: 75 to 84%; pest or weed control at 35 g/ha [2, 12]: 85 to 94%; pest or weed control at 70 g/ha [2, 12]: 85 to 94%; pest or weed control at 140 g/ha [2, 12]: 95 to 100%; pest or weed control at 35 g/ha [2, 13]: 0 to 29%; pest or weed control at 70 g/ha [2, 13]: 0 to 29%; pest or weed control at 140 g/ha [2, 13]: 0 to 29%; pest or weed control at 35 g/ha [2, 14]: 30 to 44%; pest or weed control at 70 g/ha [2, 14]: 60 to 74%; pest or weed control at 140 g/ha [2, 14]: 60 to 74%
Nc1cc(-c2ccc(F)c3c2OC(F)(F)O3)nc(C(=O)O)c1Cl [Compound 89] | 0 to 29 | 0 to 29 | 0 to 29 | 0 to 29 | 0 to 29 | 0 to 29 | 0 to 29 | 0 to 29 | 0 to 29 | 0 to 29 | 0 to 29 | 0 to 29 | 0 to 29 | 0 to 29 | 0 to 29 | 0 to 29 | 0 to 29 | 0 to 29 | 0 to 29 | 75 to 84 | pest or weed control at 140 g/ha [2, 9]: 75 to 84%; pest or weed control at 35 g/ha [2, 10]: 95 to 100%; pest or weed control at 70 g/ha [2, 10]: 95 to 100%; pest or weed control at 140 g/ha [2, 10]: 95 to 100%; pest or weed control at 35 g/ha [2, 11]: 85 to 94%; pest or weed control at 70 g/ha [2, 11]: 85 to 94%; pest or weed control at 140 g/ha [2, 11]: 95 to 100%; pest or weed control at 35 g/ha [2, 12]: 95 to 100%; pest or weed control at 70 g/ha [2, 12]: 95 to 100%; pest or weed control at 140 g/ha [2, 12]: 95 to 100%; pest or weed control at 35 g/ha [2, 13]: 0 to 29%; pest or weed control at 70 g/ha [2, 13]: 0 to 29%; pest or weed control at 140 g/ha [2, 13]: 0 to 29%; pest or weed control at 35 g/ha [2, 14]: 60 to 74%; pest or weed control at 70 g/ha [2, 14]: 60 to 74%; pest or weed control at 140 g/ha [2, 14]: 75 to 84%
COC(=O)c1nc(-c2c(F)ccc3c2OC(F)(F)O3)cc(N)c1Cl [Compound 90, Methyl 4-amino-3-chloro-6-(2,2,5-trifluorobenzo[d][1,3]dioxol-4-yl)picolinate] | 0 to 29 | 0 to 29 | 0 to 29 | 0 to 29 | 0 to 29 | 0 to 29 | 0 to 29 | 0 to 29 | 0 to 29 | 0 to 29 | 0 to 29 | 0 to 29 | 0 to 29 | 0 to 29 | 0 to 29 | 0 to 29 | 0 to 29 | 0 to 29 | 60 to 74 | 75 to 84 | pest or weed control at 140 g/ha [2, 9]: 85 to 94%; pest or weed control at 35 g/ha [2, 10]: 95 to 100%; pest or weed control at 70 g/ha [2, 10]: 95 to 100%; pest or weed control at 140 g/ha [2, 10]: 95 to 100%; pest or weed control at 35 g/ha [2, 11]: 0 to 29%; pest or weed control at 70 g/ha [2, 11]: 0 to 29%; pest or weed control at 140 g/ha [2, 11]: 60 to 74%; pest or weed control at 35 g/ha [2, 12]: 85 to 94%; pest or weed control at 70 g/ha [2, 12]: 95 to 100%; pest or weed control at 140 g/ha [2, 12]: 95 to 100%; pest or weed control at 35 g/ha [2, 13]: 0 to 29%; pest or weed control at 70 g/ha [2, 13]: 0 to 29%; pest or weed control at 140 g/ha [2, 13]: 0 to 29%; pest or weed control at 35 g/ha [2, 14]: 0 to 29%; pest or weed control at 70 g/ha [2, 14]: 0 to 29%; pest or weed control at 140 g/ha [2, 14]: 0 to 29%
